Data on 2 compounds can be found in patent US9795596B2, “Pharmaceutical diagnostic” (Novartis AG, priority 2012, dated 2017).

What all share (assay type): biochemical, bovine
Assay [1] has as its target T1, PI3Kα Q859A mutant (Bos taurus, UniProt P32871, Q859A).
T1 construct: His; made in house; host or cells: Sf9 insect cells (baculovirus co-infection)
As to the kind of experiment: Enzymatic HTRF assay, PI3Kα Q859A mutant. How it is done: (§1) Mutagenesis to generate PI3Kα (p110α) mutant Q859A is performed with the QuikChange II Site-Directed Mutagenesis kit (Stratagene (cat. no 200523) and the oligonucleotides
(§2) The Phosphoinositide 3-kinase (PI3-Kinase or PI3K) Homogenous Time-Resolved (HTRF®) assay kit is purchased from Upstate (now Millipore Corporation, Billerica, Mass., USA). PIP2 and PiP3 is purchased from Avanti Polar Lipids (Alabaster, Ala., USA), microplates from Greiner (Frickenhausen, Germany; Catalog No. 781207). All other reagents are purchased from Sigma (St Louis, Mo., USA).
(§3) The enzymatic Homogenous Time-Resolved Fluorescense (HTRF®) assay (from Upstate (now Millipore Corporation, Billerica, Mass., USA) is performed essentially as described by Sugita et al. (2008), Biochem. Biophys. Res. Commun 377(3):941-5. PI3Kα (0.25-1.5 ng) is incubated for 60 minutes at room temperature in 20 μl buffer containing 10 mM MgCl2, 30 μM ATP, 20 μM 1,2-dioctanoyl-sn-glycero-3-phospho-(1′-myo-inositol-4′,5′-bisphosphate) (ammonium salt) (PIP2), 150 mM NaCl, 5 mM (dl-Dithiothreitol) DTT, and 25 mM Tris/HCl (pH 7.5) in 384-well white plates. The kinase reaction is initiated by adding ATP (30 μM) for inhibition studies and by adding PI3Kα for ATP kinetics (0-200 μM ATP).
(§4) PI3K inhibitor (S)-Pyrrolidine-1,2-dicarboxylic acid 2-amide 1-({4-methyl-5-[2-(2,2,2-trifluoro-1,1-dimethyl-ethyl)-pyridin-4-yl]-thiazol-2-yl}-amide) (hereinafter “Compound I”) is diluted successively in Dimethyl sulfoxide (DMSO) and in buffer (final concentration: 2.5% DMSO). The kinase reaction is stopped by addition of the HTRF reagents according to manufacturer's instructions. […] The plate is read using Tecan's GeniosPro® multilabel reader (from Tecan Group Ltd., Männedorf, Switzerland) in time-resolved fluorescence mode (Excitation filter: 340 nm; Emission filter 1: 620 nm; Emission filter 2: 665 nm; Mirror: dichroic2; Lag time: 150 μs; Integration time: 500 μs; 10 flashes).
(§5) The HTRF signal is determined according to the formula: HTRF signal=10000×(emission at 665 nm/emission at 620 nm). […]
For orientation: In TR-FRET formats the signal depends on donor and acceptor labels being close together.

The target in assay [2] is T2, PI3Kα wildtype (wt) (Bos taurus, UniProt P32871).
T2 construct: His; made in house; host or cells: Sf9 insect cells (baculovirus co-infection)
As to the kind of experiment: Enzymatic HTRF assay, PI3Kα wild-type.
From the text: The Phosphoinositide 3-kinase (PI3-Kinase or PI3K) Homogenous Time-Resolved (HTRF®) assay kit is purchased from Upstate (now Millipore Corporation, Billerica, Mass., USA). PIP2 and PiP3 is purchased from Avanti Polar Lipids (Alabaster, Ala., USA), microplates from Greiner (Frickenhausen, Germany; Catalog No. 781207). All other reagents are purchased from Sigma (St Louis, Mo., USA). […]
PI3K inhibitor (S)-Pyrrolidine-1,2-dicarboxylic acid 2-amide 1-({4-methyl-5-[2-(2,2,2-trifluoro-1,1-dimethyl-ethyl)-pyridin-4-yl]-thiazol-2-yl}-amide) (hereinafter “Compound I”) is diluted successively in Dimethyl sulfoxide (DMSO) and in buffer (final concentration: 2.5% DMSO). […] The plate is read using Tecan's GeniosPro® multilabel reader (from Tecan Group Ltd., Männedorf, Switzerland) in time-resolved fluorescence mode (Excitation filter: 340 nm; Emission filter 1: 620 nm; Emission filter 2: 665 nm; Mirror: dichroic2; Lag time: 150 μs; Integration time: 500 μs; 10 flashes).
as §5

Assay [3] deals with PI3Kα Q859A mutant. In words: Enzymatic HTRF assay, PI3Kα Q859A mutant. The note with it: IC50 Q859A / IC50 wildtype. On the procedure:
as §1, §2, §3, §4, §5

Each structure is given as a SMILES string.

T2 sequence (P32871 whole entry): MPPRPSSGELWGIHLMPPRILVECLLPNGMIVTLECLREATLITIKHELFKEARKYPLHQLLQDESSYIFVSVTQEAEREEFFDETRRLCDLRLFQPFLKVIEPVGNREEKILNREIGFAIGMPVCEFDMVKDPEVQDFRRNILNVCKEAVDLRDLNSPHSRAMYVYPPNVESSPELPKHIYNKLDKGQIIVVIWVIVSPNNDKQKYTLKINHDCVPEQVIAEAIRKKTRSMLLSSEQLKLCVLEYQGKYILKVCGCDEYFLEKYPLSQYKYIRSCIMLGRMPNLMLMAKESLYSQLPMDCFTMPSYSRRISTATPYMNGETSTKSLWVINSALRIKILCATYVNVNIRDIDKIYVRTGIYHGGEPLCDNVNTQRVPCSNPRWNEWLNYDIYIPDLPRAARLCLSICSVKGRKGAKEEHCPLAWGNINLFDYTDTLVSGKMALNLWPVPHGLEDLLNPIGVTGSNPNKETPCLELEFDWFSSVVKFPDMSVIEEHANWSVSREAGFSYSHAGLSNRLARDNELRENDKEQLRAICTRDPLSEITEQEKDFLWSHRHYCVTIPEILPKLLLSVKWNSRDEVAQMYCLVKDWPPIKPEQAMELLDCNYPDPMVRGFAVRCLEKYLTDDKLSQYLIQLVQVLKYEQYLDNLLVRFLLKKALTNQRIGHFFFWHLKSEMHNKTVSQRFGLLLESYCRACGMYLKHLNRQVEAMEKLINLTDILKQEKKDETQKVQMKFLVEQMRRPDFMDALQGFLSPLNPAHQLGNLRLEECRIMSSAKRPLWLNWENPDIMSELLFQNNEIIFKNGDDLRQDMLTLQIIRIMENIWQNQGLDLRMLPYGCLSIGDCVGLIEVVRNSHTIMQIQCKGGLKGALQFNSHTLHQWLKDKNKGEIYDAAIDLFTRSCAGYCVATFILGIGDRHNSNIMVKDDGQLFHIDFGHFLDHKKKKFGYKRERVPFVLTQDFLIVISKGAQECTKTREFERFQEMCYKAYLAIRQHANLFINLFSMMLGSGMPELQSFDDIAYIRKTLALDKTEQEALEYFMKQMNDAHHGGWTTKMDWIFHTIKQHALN
T2 sequence (P27986 whole entry partner): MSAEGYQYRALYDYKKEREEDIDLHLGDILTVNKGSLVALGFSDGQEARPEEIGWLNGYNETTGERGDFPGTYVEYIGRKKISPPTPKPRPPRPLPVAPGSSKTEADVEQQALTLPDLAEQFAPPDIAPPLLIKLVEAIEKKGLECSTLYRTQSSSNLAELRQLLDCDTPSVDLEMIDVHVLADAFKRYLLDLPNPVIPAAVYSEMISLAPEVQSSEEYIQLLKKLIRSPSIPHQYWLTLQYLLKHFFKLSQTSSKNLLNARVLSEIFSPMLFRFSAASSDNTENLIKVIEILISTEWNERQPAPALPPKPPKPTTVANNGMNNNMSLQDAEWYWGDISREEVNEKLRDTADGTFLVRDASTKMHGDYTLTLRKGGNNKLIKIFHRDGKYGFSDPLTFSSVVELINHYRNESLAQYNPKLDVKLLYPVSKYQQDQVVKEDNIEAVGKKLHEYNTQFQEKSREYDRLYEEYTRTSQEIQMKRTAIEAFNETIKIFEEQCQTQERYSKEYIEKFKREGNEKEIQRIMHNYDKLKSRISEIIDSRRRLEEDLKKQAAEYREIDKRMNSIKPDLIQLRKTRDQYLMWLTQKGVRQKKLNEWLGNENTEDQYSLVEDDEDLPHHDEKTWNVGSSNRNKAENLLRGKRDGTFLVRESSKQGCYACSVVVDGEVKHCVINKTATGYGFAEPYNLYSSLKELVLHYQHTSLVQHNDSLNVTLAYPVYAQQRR
T1 sequence (P32871 whole entry Q859A): as the sequence (P32871 whole entry) above, with Q859A counted along it
T1 sequence (P27986 whole entry partner): as the sequence (P27986 whole entry partner) above

Turning to `Nc1ncnc2c1ncn2[C@@H]1O[C@H](COP(=O)(O)OP(=O)(O)OP(=O)(O)O)[C@@H](O)[C@H]1O` [ATP, reference compound], the Km (usually the substrate concentration at which the rate is half of its maximum) in assay [1] (PI3Kα Q859A mutant, 0-200 μM ATP, mean ± S.E. of 5 experiments, read-out: Michaelis constant (Km), ATP activation kinetics) worked out at 72 ± 8 µM; in assay [2] (PI3K wild-type, 0-200 μM ATP, mean ± S.E. of 14 experiments, read-out: Michaelis constant (Km), ATP activation kinetics) it was 60 ± 6 µM.
Regarding `Cc1nc(NC(=O)N2CCC[C@H]2C(N)=O)sc1-c1ccnc(C(C)(C)C(F)(F)F)c1` [Compound I, (S)-Pyrrolidine-1,2-dicarboxylic acid 2-amide 1-({4-methyl-5-[2-(2,2,2-trifluoro-1,1-dimethyl-ethyl)-pyridin-4-yl]-thiazol-2-yl}-amide)], the IC50 (commonly the concentration needed to halve the response being measured) turned out to be 122 ± 28 nM in assay [1] (PI3Kα Q859A mutant p110α/p85α, 30 μM ATP, 20 μM PIP2, 60 min, mean ± S.E. of 7 experiments) and 8.4 ± 1 nM in assay [2] (PI3Kα wild-type p110α/p85α, 30 μM ATP, 20 μM PIP2, 60 min, mean ± S.E. of 10 experiments). Also, the “fold increase in the IC50, Q859A mutant versus wildtype” value in assay [3] is 14.5 fold.
